Laboratory results reported in patent US10590116B2, “3-indolyl furanoids as inhibitors of matrix metalloproteinase-9 for prevention of gastric ulcer and other inflammatory diseases” (Council of Scientific & Industrial Research, priority 2017, dated 2020).

Key:
[1] = tested on: indomethacin-induced acute gastric ulcers; assay: Protection studies of gastric ulceration in vivo (indomethacin-induced acute gastric ulcer, ulcer index); design: species or system Balb/c mice; conditions: Mus musculus, indomethacin 80 mg/kg, Balb/c mice; for inhibition in vivo at 50 mg/kg: 50 mg/kg body weight oral in olive oil, scored after 4 h
Procedure: Animal experiments were carried out using Balb/c mice (20-25 g). Animals were anesthetized with ketamine (12 mg/kg b.w.) prior to cervical dislocation. Control and experimental animals were fasted for 6 hr with free access to water.
Balb/c mice (20-25 g) bred in-house with free access to food and water was used for all experiments. Experiments were designed to minimize animal suffering and to use the minimum number associated with valid statistical evaluation. Animals were anesthetized with ketamine (12 mg/kg b.w.) followed by cervical dislocation. Animal experiments were carried out following the guidelines of animal ethics committee of the institute. Control and experimental animals were fasted for 6 h with free access to water.
Before ulcer induction, animals of both control and experimental groups were kept separately in standard controlled conditions. Acute gastric ulcers were induced by oral administration of indomethacin at a dose of 80 mg/kg b.w. The control group received the vehicle only (olive oil), whereas the experimental group received indomethacin for gastric ulceration. After 4 h, the animals were sacrificed and gastric lesions in the fundic stomach were scored and expressed as obtained by counting the number of red bands/dots as follows: 0=no pathology; 1=a small pinhead ulcer spot; and 2-5=a band like lesion of 2-5 mm length. Total score become ˜50 when ulcer is severe. The sum of the total scores as divided by the number of animals was expressed as the mean ulcer index. Formulations were administered orally 30 min prior to indomethacin treatment to check the gastroprotective effect. Among all the chemical compositions of 3-indolyl furanoids synthesized (table 1), compounds 1, 2, 5, 8, 9 and 12 were tested for prevention studies against gastric inflammation in vivo.

MMP-9 = MMP-9 (Homo sapiens, UniProt P14780); assay: In vitro analysis of anti-ulcer efficacy (structure-activity discussion); conditions: method not described
MMP-9, sequence (P14780 94-707, species assumed): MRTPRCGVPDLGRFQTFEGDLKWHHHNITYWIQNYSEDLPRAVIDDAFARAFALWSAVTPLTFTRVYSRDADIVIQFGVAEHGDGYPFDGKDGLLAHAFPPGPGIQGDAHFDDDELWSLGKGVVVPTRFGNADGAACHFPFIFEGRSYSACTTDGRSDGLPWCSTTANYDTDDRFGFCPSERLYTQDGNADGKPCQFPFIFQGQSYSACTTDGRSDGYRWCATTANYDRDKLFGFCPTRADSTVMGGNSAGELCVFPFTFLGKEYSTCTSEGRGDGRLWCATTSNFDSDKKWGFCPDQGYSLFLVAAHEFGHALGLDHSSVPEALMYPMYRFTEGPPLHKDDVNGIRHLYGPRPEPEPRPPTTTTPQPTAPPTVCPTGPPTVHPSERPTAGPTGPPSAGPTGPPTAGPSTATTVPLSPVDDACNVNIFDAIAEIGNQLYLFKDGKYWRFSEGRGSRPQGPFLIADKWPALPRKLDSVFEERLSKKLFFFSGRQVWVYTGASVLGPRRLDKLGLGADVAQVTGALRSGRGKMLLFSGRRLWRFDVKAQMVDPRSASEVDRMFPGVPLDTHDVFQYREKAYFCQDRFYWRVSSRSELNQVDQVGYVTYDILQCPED

Row | SMILES | inhibition in vivo at 50 mg/kg [1] [%] | anti-ulcer efficacy in vitro (MMP-9) | inhibition in vivo at 12 mg/kg ([1]; po, 4 h, 12 mg/kg body weight) [%]
1 | COc1cccc2c1c(-c1cc(-c3ccccc3)oc1-c1ccccc1)cn2C [compound 12, 4-methoxy-1-methyl-3-(2,5-diphenylfuran-3-yl)-1H-indole] | 56 | not acceptable to have good anti-ulcer activity | 
2 | COc1ccc2[nH]cc(-c3cc(-c4ccccc4)oc3-c3ccccc3)c2c1 [compound 2, 3-(2,5-diphenylfuran-3-yl)-5-methoxy-1H-indole] | 83 |  | 
3 | COc1ccc2[nH]cc(-c3cc(-c4ccccc4)oc3-c3ccccc3)c2c1OC [compound 6, 4,5-dimethoxy-3-(2,5-diphenylfuran-3-yl)-1H-indole] | 74 |  | 
4 | Oc1ccc2[nH]cc(-c3cc(-c4ccccc4)oc3-c3ccccc3)c2c1 [compound 1, 3-(2,5-diphenylfuran-3-yl)-1H-indol-5-ol] | 78 |  | 
5 | COc1ccc2[nH]c([S+]([O-])Cc3ncc(C)c(OC)c3C)nc2c1 (centres unmarked) [Omeprazole, reference compound] |  |  | 100
6 | Cc1c(-c2cc(-c3ccccc3)oc2-c2ccccc2)c2ccccc2n1C [compound 11, 1,2-dimethyl-3-(2,5-diphenylfuran-3-yl)-1H-indole] |  | not acceptable to have good anti-ulcer activity | 
7 | C=CCOc1ccc2[nH]cc(-c3cc(-c4ccccc4)oc3-c3ccccc3)c2c1 [compound 3, 5-(allyloxy)-3-(2,5-diphenylfuran-3-yl)-1H-indole] |  | moderate anti-ulcer efficacy | 
8 | CCCOc1ccc2[nH]cc(-c3cc(-c4ccccc4)oc3-c3ccccc3)c2c1 [compound 4, 3-(2,5-diphenylfuran-3-yl)-5-propoxy-1H-indole] |  | moderate anti-ulcer efficacy | 
9 | Oc1ccccc1-c1[nH]c2ccccc2c1-c1cc(-c2ccccc2)oc1-c1ccccc1 [compound 9, 3-(2,5-diphenylfuran-3-yl)-2-(2-hydroxyphenyl)-1H-indole] | 72 |  | 
10 | c1ccc(-c2cc(-c3c(-c4ccccc4)[nH]c4ccccc34)c(-c3ccccc3)o2)cc1 [compound 8, 2-phenyl-3-(2,5-diphenylfuran-3-yl)-1H-indole] | 65 |  | 
